The text below walks through data of patent publication US20090324489A1 (priority 2005, published 2009).

Where two headings read alike, the source gives them in different places.

A short description of one data set: physchem. The note with it: for half-life / half-life at 1.5 μM: buffer. Type of data set: physicochemical. As for the experimental part:
The stability of compounds of the invention was obtained by the following method. […] The solutions were incubated at 37° C.
Stability data was fit to equation 1, which illustrates our treatment of the data for 2a ([…]) as shown in FIG. 2 with first order decay constants (kFOD) given in Table 1.

The subject of the next data set is A549 cells. As to the kind of experiment: Anti-proliferative SRB assay, A549 cells. The format is cell-based. As for the experimental part:
A549 cells were grown in RPMI-1640 supplemented with 10% FBS, 100 units/mL of penicillin, 100 μg/mL of streptomycin, and 2 mM L-glutamine. All cells were grown in a humidified atmosphere at 37° C. and 5% CO2. Growth inhibition was evaluated by the SRB assay^22. Cells were seeded in 96-well plates at 5000 cells per well in 100 μL of media and incubated at 37° C. for 24 hours. Cells were then treated with 0-100 μM of compounds at 37° C. for 48 hours. Cells were fixed with 50 μL cold 50% TCA, incubated at 4° C. for 1 hour, and washed 5 times with tap water. The 96-well plates were allowed to air dry and 100 μL 0.4% sulforhodamine B (SRB) in 1% acetic acid was added to each well. After 10 minutes, the unbound SRB was washed away with 1% acetic acid and the plates were dried. Protein-bound dye was solubilized by addition of 200 μL 10 mM Tris buffer and subsequent shaking at RT for 10 minutes. The absorbance of each well was measured at 490 nm by a plate reader. Percent cell survival was calculated for each concentration by the ratio of the measured absorbance to the absorbance of the untreated cells. Curve fitting was performed using Prism 4.0a software. IC50 is the 50% inhibition of cell mass without subtraction of the resistant cell population.

The test system of the next data set is HeLa cells. As to the kind of experiment: Anti-proliferative assay, HeLa cells. The format is cell-based.
For data set [1] the following is noted: cited from earlier work.
A further data set has as its target PI3K. As to the kind of experiment: Inhibition of PI3K enzyme activity (32P ATP lipid phosphorylation, TLC). The format is biochemical. To be noted: compounds incubated 3 hours at 37° C. in PBS pH 6.8, then 30 minute PI3K incubation; read-out: Bioassay: PI3K IC50. As for the experimental part: We incubated compounds for three hours at 37° C. in PBS, pH 6.8, followed a 30 minute incubation for PI3K activity using the assay system previously described which involves lipid phosphorylation by ^32P labeled ATP and thin layer chromatography, (see Yuan et al., Bioconjug. Chem. 16:669 (2005)).

The nature of data set [2]: Formation of wortmannin from WmC20 conjugates monitored by HPLC. To be noted: PBS pH 6.8, 37° C. As for the experimental part: The solutions were incubated in water bath at 37° C. and were analyzed at different time points with HPLC by injecting the solution (10 μL) together with 1 μL internal standard solution (containing 1 μg methyl 4-hydroxybezoate). The initial time point (0 hr) was taken before putting the tube in the water bath. HPLC gradients were adjusted to produce baseline separations. Before the injection, the samples were vortexed briefly and then spun down. Data using this method appear in FIG. 6.
Compounds (1.8 mg) and 4b (1.3 mg) (examples were weighted into the 1.5 mL tubes and dissolved in PBS buffer (pH 6.8, 400 μL). The solutions were incubated at 37° C. At different time point 20 μL solution was mixed with 1 μL internal standard solution in DMSO (containing 1 μg methyl 4-hydroxybenzoate) and analyzed by HPLC. The initial time point (0 hr) was taken before putting the tube in the water bath. Before the injection, the samples were vortexed briefly and then spun down.
The following HPLC methods were employed. HPLC (Varian Prostar 210 with a variable wavelength PDA 330 detector) employed reverse phase C18 columns (VYDAC, Cat.#: 218TP 1022 for synthesis; Varian, Cat. #: R0086200C5 for analysis) with water (Millipore, containing 0.1% trifloroacetic acid,) (buffer A) and acetonitrile (containing 20% buffer A) (buffer B) as elution buffer. System 1: buffer A/buffer B (80:20) isocratic for 5 minutes, linear gradient to buffer A/buffer B (20:80) over 40 minutes, then the gradient back to 80:20 in 5 minutes and isocratic for 5 minutes, flow: 4.9 ml/min, λmax: 418 nm (used for purification of 2a); System 2: buffer A/buffer B (80:20) isocratic for 5 minutes, linear gradient to buffer A (buffer B (20:80) over 25 minutes and then isocratic for 5 minutes, then the gradient back to 80:20 in 5 minutes and isocratic for 5 minutes, flow: 6.0 mi/min, λmax: 408 nm (used for purification of 2b); System 3: buffer A/buffer B (70:30) linear gradient to buffer A/buffer B (20:80) over 15 minutes, then gradient back to 70:30 in 3 minutes and isocratic for another 5 minutes, flow: 1.0 ml/min, λmax: 258 nm (System 4: buffer A/buffer B (99:1) linear gradient to buffer A/buffer B (40:60) over 46 minutes, then gradient back to […] in 5 minutes and isocratic for another 5 minutes, flow: 1.0 ml/min, λmax: 250 nm).

Setting [3] is: Homo sapiens, A549, 48 hours treatment.
The mark [4] stands for this setting: RPM tissue culture medium, data from Holleran et al.

For the molecule `COCC1OC(=O)C(=CN(C)CCCCCC(=O)O)C2=C(O)C(=O)C3=C(C(OC(C)=O)CC4(C)C(=O)CCC34)C21C` (centres unmarked) [Example 1, wortmannin C20-N(Me)-hexanoic acid], in “physchem” (pH 6.8, Half Life), the half-life – broadly, the time in which the quantity being followed falls by half – is 8.7 h and the half-life at 1.5 μM was 10.7 h. Half-maximal inhibition in the data set on A549 cells (setting [3]) (IC50) required 3.11 ± 0.17 µM. Moreover, 10.9 ± 0.2 µM corresponded to half-maximal inhibition in the data set on HeLa cells (Homo sapiens, HeLa) (IC50).
In the same order, the values of `COCC1OC(=O)C(=CNCCCCCC(=O)O)C2=C(O)C(=O)C3=C(C(OC(C)=O)CC4(C)C(=O)CCC34)C21C` (centres unmarked) [Example 2, wortmannin C20-NH-hexanoic acid] are 131 h, 223 h, 45.8 ± 0.3 µM and 63.8 ± 0.6 µM.
With `COC[C@H]1OC(=O)c2coc3c2[C@@]1(C)C1=C(C3=O)[C@@H]2CCC(=O)[C@@]2(C)C[C@H]1OC(C)=O` [wortmannin], the “KFOD (95% confidence intervals)” value in the data set “physchem” (PBS pH 6.8, 37° C.) is listed as 0.012 (0.0080-0.016) hr^−1; in the data set “physchem” (PBS, 0.065 mM BSA, 37° C.), 0.18 (0.16-0.20) hr^−1; in the data set “physchem” (PBS, 10 mM NAcLys, 37° C.) it was 0.30 (0.23-0.38) hr^−1; in “physchem” (PBS, 10 mM Proline, 37° C.), 1.87 (0.62-3.13) hr^−1. Besides, the half-life in “physchem” (pH 6.8, Half Life) is 57.8 h. The same molecule showed a half-life at 2.26 mM in “physchem” (pH 6.8, Half Life) of 3.85 h. In addition, the KFOD in data set [1] (MEM tissue culture medium, data from Holleran et al.) is 5.04 h⁻¹; in data set [1] (setting [4]), 4.02 h⁻¹. Besides, the “half-lives in RPM and MEM tissue culture media” value in data set [1] (RPM and MEM, Holleran et al.) is listed as “about 10 minutes”. Moreover, the “Half Life” value in data set [1] (setting [4]) was 0.172 h. Further, the “half-life in tissue culture media” value in data set [1] (tissue culture media, Holleran et al.) is 8 to 13 min. The IC50 (in general, the concentration at which inhibition is half-maximal) with A549 cells (setting [3]) is 21.1 ± 0.5 µM; in the data set with HeLa cells (Homo sapiens, HeLa), 41 ± 0.9 µM.
Turning to “Wm-N(Me)Hexanoate-BSA conjugate [Example 12]”, on PI3K, the IC50 is 0.0148 ± 0.0011 µM. In addition, in data set [2], the “K1 (wortmannin generation, fit to Equation 2)” value is reported as 0.190 (0.128-0.253) hr^−1 and the “K2 (wortmannin degradation, fit to Equation 2)” value is given as 0.905 (0.707-1.103) hr^−1.
With WmC2O-N(Me)-hexanoate-Bead [Example 16], in data set [2], the “K1 (wortmannin generation, fit to Equation 2)” value was 0.308 (0.124-0.492) hr^−1 and the “K2 (wortmannin degradation, fit to Equation 2)” value is 0.148 (0.076-0.220) hr^−1.
In the case of “WmC20-N(H)-hexanoate-dextran [Example 18]”, the IC50 was found to be 64.7 ± 1.2 µM with A549 cells (48 hours treatment) and 58 ± 0.6 µM in the data set on HeLa cells.
In the case of WmC20-N(Me)-hexanoate-IgG [Example 14], the IC50 on PI3K turned out to be 0.13 µM. Also, in data set [2], the “K1 (wortmannin generation, fit to Equation 2)” value was 0.024 (0.013-0.034) hr^−1 and the “K2 (wortmannin degradation, fit to Equation 2)” value is listed as 0.282 (0.166-0.398) hr^−1.
As for “WmC20-N(Me)-hexanoate-dextran [Example 17]”, the half-inhibitory concentration (IC50) with A549 cells (48 hours treatment) amounted to 3.96 ± 0.23 µM; in the data set on HeLa cells, 13.3 ± 0.4 µM.
For the molecule “WmC20-NH-hexanoate-BSA conjugate [Example 13]”, on PI3K, the IC50 is > 1 µM.
Still for that read-out and setting: the result for WmC20-NH-hexanoate-IgG [Example 15] reads > 1 µM.
